What all share (assay type): in vivo, maize
The subject of experiment [1] is acs6/acs6 plants. Description: dark-induced senescence of sheathed leaves, complementation of the acs6 mutant by exogenous ACC. As to the method: To examine if exogenous ACC could complement the acs6 mutant and reverse its staygreen phenotype, the third oldest, sixth, and ninth leaf from ACS6/ACS6, acs2/acs2, and acs6/acs6 plants were subject to dark-induced senescence at 20 DAP by covering them with sheaths for 7 days. All leaves were fully green at the onset of the experiment and remained attached to the plant. acs6/acs6 plants were watered daily with water or 100 μM ACC for 7 days. Following 7 days, dark-induced senescence had initiated in wild-type (i.e., ASC6/ASC6) leaves although it had not progressed to the extent observed following a 2 week dark treatment. […] Dark-induced senescence was also observed in leaf 3 of the acs2 homozygous mutant although it was less pronounced than that observed in the corresponding wild-type leaves.

The test system of experiment [2] is acs6/acs6 plants. Description: chlorophyll a+b level in leaves after 7 day dark treatment. As to the method: (§1) FIG. 20 Panel A illustrates chlorophyll data, Panel B soluble protein, and Panel C Rubisco expression. The level of chlorophyll a+b (Panel A) and soluble protein (Panel B) was measured in the third oldest leaf (Leaf 3), sixth oldest leaf (Leaf 6), and ninth oldest leaf (Leaf 9) of adult wild-type (i.e., ACS6/ACS6), acs21acs2, and acs61acs6 plants following dark treatment for 7 days. Plants were watered daily. Additional acs61acs6 plants were watered daily with 100 μM ACC during the treatment. acs61acs6 leaves watered with 100 μM ACC but kept unsheathed are also shown. The average and standard deviation of leaves from three individual plants is shown. (Panel C) Western analysis of the same leaves was performed using rice anti-Rubisco antiserum. Soluble protein from leaf samples of equal fresh weight was used.
Leaves were frozen in liquid nitrogen and ground to a fine powder. Samples of approximately 0.1 g were removed to a 1.5 ml tube and weighed. Chlorophyll was extracted 5× with 1 ml (or 0.8 ml) of 80% acetone. Individual extractions were combined and the final volume adjusted to 10 ml (or 15 ml) with additional 80% acetone. Chlorophyll content (a+b) was determined spectrophotometrically according to the methods of Wellburn (1994). […]

For experiment [3], the system named is acs6/acs6 plants. The experiment is described as follows: total soluble leaf protein after 7 day dark treatment. As to conditions: watered with 100 μM ACC. As to the method:
as §1
For total protein isolation, leaves of B73 or mutant plants were collected at the indicated times, quick-frozen in liquid nitrogen and ground to a fine powder. […] Samples were centrifuged 10 min at 10,000 rpm, the supernatant removed to a new tube and the concentration determined spectrophotometrically according to the methods of Bradford (1976). See, Bradford M M (1976) A rapid and sensitive method for the quantitation of microgram quantities of protein utilizing the principle of protein-dye binding. […]

For experiment [4], the system named is acs6/acs6 plants. Description: Western analysis for Rubisco in leaves. As to the method: as §1
B73 leaves were collected at the indicated times and ground in liquid nitrogen to a fine powder. One ml of extraction buffer [20 mM HEPES (pH 7.6), 100 mM KCl, 10% glycerol, 1 mM PMSF] was added to approximately 0.1 g frozen powder and mixed thoroughly. Cell debris was pelleted by centrifugation at 10,000 rpm for 10 min and the protein concentration determined as described (Bradford, 1976). […] The blots were washed twice with TPBS and the signal detected typically between 1 to 15 min using chemiluminescence (Amersham Corp). […]

`NC1(C(=O)O)CC1` [ACC, 1-aminocyclopropane-1-carboxylic acid]: in the experiment with acs6/acs6 plants [1] (acs6 leaves not sheathed, plants watered daily with 100 μM ACC for 7 days), the “senescence of leaves that were not sheathed (visual)” value is “did not affect acs6 leaves that were not sheathed”. Moreover, the “dark-induced senescence (visual)” value in the experiment with acs6/acs6 plants [1] (acs6 leaves sheathed 7 days at 20 DAP, plants watered daily with 100 μM ACC) is recorded as “dark-induced senescence similar to that of wild-type leaves was observed”. Further, in the experiment with acs6/acs6 plants [2] (acs6 leaves, 7 day dark treatment, watered with 100 μM ACC), the “retention of chlorophyll a+b compared with wild-type leaves” value is on record as “did not do so when watered with 100 μM ACC”. In addition, the loss of chlorophyll entry with acs6/acs6 plants [2] (unsheathed leaves of acs6 mutants watered with ACC) is on record as “chlorophyll was not lost”. Besides, the “retention of total soluble leaf protein compared with wild-type leaves” value with acs6/acs6 plants [3] was “did not do so when watered with 100 μM ACC”. In addition, the “loss of Rubisco” value is “No loss of Rubisco was observed” with acs6/acs6 plants [4] (ACC-treated acs6 leaves that remained in the light) and “lost an amount of Rubisco similar to that of dark-treated B73 leaves” in the experiment with acs6/acs6 plants [4] (dark-treated acs6 leaves watered with 100 μM ACC).

For the origin of these results see patent publication US8779235B2, “Engineering single-gene-controlled staygreen potential into plants” (Pioneer Hi-Bred International, Inc., priority 2003, dated 2014).
